Assay results taken from patent US9095561B2, “Methods for affecting homology-directed DNA double stranded break repair” (University of South Carolina, priority 2010, dated 2015).
Where a SMILES comes first, the peptide text is derived from it. The star is where a group is joined. Cbz = O=C(OCc1ccccc1)*

What was measured:
[1] = system: HA-RAD51D; experiment: HA-RAD51D protein levels after CHX with or without proteasome inhibitor MG132; format: cell-based, mouse; set-up: HA-RAD51D protein levels elevated: dose or concentration left out as unconfirmed
Method: FIG. 18 illustrates analysis of MEFs that were treated with CHX ([…]) or CHX in combination with MG132 ([…]). Cell lysates were prepared at the 4 hour time point, and HA-RAD51D band intensity was calculated as described herein.
To determine whether decreased HA-RAD51D half-life can be attributed to proteasome degradation, HA-RAD51D protein levels were assessed following treatment with the proteasome inhibitor MG132. As anticipated, HA-RAD51D protein levels were elevated up to 42% in MG132 treated samples (FIG. 18, lanes 1-4) indicating RAD51D protein levels are in part regulated by the proteasome.

[2] = system: RAD51 foci; experiment: RAD51 foci formation by immunofluorescence in MEFs; format: cell-based, mouse; conditions: MMC 200 ng/mL, 16 h exposure, RNF138 proficient MEFs; untreated control approximately 21 percent; p<0.01
Method: The presence of RAD51 foci was examined in MEFs subjected to either 200 ng/mL Mitomycin C (MMC) treatment or with no treatment. In addition, both deficient RNF138 cells and proficient RNF138 cells were examined.
For analysis of RAD51 foci formation, 10,000 cells were seeded onto glass coverslips for transfection with Rnf138 siRNA. Twenty-four hr following siRNA transfection, cells were challenged with MMC (200 ng/mL) for 16 hr. Immunofluoresence detection of RAD51 foci was carried out as is generally known I the art (see, e.g., Smiraldo et al., 2005). Cells containing five or more distinct foci were scored positive. For each condition, a minimum of 250 cells from at least three independent experiments was analyzed (n≧750).
The presence of RAD51 foci monitored by immunofluorescence is illustrated in FIGS. 12A-D. RAD51 foci indicates DNA damaged sites undergoing HR repair. MMC treatment (200 ng/mL) increased the percentage of cells containing 5 or more distinct RAD51 foci from approximately 21 percent for untreated control cells (FIG. 12B) to 51 percent (FIG. 12D) following a 16 h exposure (p<0.01). […] In addition, RAD51 foci formation was less in untreated RNF138 deficient (FIG. 12A) versus RNF138 proficient (FIG. 12B) MEFs. Although, a notable increase in RAD51 foci is still detected upon MMC treatment (FIG. 13).

SMILES | HA-RAD51D protein stability following knockdown of RNF138 expression ([1]; CHX plus MG132, 4 hour time point, RNF138 knockdown MEFs) | HA-RAD51D protein levels elevated ([1]; CHX, 4 hour time point, MEFs) | percentage of cells containing 5 or more distinct RAD51 foci [2] [%]
CC(C)C[C@@H](C=O)NC(=O)[C@H](CC(C)C)NC(=O)[C@H](CC(C)C)NC(=O)OCc1ccccc1 [MG132] (Cbz-Leu-Leu-Leu-aldehyde) | failed to increase | up to 42% | 
CO[C@@]12[C@H](COC(N)=O)C3=C(C(=O)C(C)=C(N)C3=O)N1C[C@@H]1N[C@@H]12 [MMC, Mitomycin C] |  |  | 51
